Where a SMILES comes first, the peptide text is derived from it. Bridges are numbered along the chain shown (N, C = ends). [ ]: non-standard residue; d: D form. The star is where a group is joined. hPhe(3-Cl-4-CF3) = N[C@@H](CCc1ccc(C(F)(F)F)c(Cl)c1)C(=O)O; NPrPhe(4-CF3) = CCCN[C@@H](Cc1ccc(C(F)(F)F)cc1)C(=O)O; NMeGly(cPent) = CN[C@H](C(=O)O)C1CCCC1; Pro(4,4-F2) = O=C(O)[C@@H]1CC(F)(F)CN1; Pro(4S-Me) = C[C@@H]1CN[C@H](C(=O)O)C1; NMeD = CN[C@@H](CC(=O)O)C(=O)O; NMeL = CN[C@@H](CC(C)C)C(=O)O; Morpholide = C1CN(*)CCO1; NMeA = CN[C@@H](C)C(=O)O; Ac5c = NC1(C(=O)O)CCCC1; Aze = O=C(O)[C@@H]1CCN1; Ac3c = NC1(C(=O)O)CC1; Sar = CNCC(=O)O
Columns and labels:
[1] = biological target: GDP-bound NRAS wild-type protein (Homo sapiens, UniProt P01111); assay: Binding to NRAS by surface plasmon resonance (SPR), Single Cycle Kinetics; details: SPR; for NRAS/KRAS (ratio of KD value with respect to NRAS to KD value with respect to KRAS): GDP-bound NRAS wild-type vs GDP-bound KRAS wild-type
[2] = biological target: GDP-bound HRAS wild-type protein (Homo sapiens, UniProt P01112); assay: Binding to HRAS by surface plasmon resonance (SPR), Single Cycle Kinetics; details: SPR; for HRAS/KRAS (ratio of KD value with respect to HRAS to KD value with respect to KRAS): GDP-bound HRAS wild-type vs GDP-bound KRAS wild-type
Chain of GDP-bound HRAS wild-type protein (P01112 whole entry): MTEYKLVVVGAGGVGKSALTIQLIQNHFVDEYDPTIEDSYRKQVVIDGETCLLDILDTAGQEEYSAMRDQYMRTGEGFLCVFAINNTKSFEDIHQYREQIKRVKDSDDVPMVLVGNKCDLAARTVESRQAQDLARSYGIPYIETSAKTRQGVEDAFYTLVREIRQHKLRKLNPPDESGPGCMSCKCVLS

Chain of GDP-bound NRAS wild-type protein (P01111 whole entry): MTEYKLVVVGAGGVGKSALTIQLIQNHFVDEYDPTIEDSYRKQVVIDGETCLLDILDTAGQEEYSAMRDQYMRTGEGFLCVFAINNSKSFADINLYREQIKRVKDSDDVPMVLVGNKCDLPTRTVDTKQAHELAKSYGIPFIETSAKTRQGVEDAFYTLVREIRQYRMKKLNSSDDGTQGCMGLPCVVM

## CCO[C@@H]1C[C@H]2C(=O)NC3(CCC3)C(=O)N(C)[C@@H](C3CCCC3)C(=O)N(C)[C@H](C(=O)N(C)C)CC(=O)N(C)[C@@H](C)C(=O)N[C@@H]([C@@H](C)CC)C(=O)N(C)CC(=O)N(C)[C@H]3CCCCCN(C3=O)[C@@H](Cc3ccc(C(F)(F)F)cc3)C(=O)N(C)CC(=O)N[C@@H](CCc3cc(F)c(C(F)(F)F)c(F)c3)C(=O)N2C1 [PP0476]
[1]; KD ratio NRAS/KRAS
  NRAS/KRAS (ratio of KD value with respect to GDP-bound NRAS wild-type protein to KD value with respect to KRAS): B (a compound having 3 or more and less than 10 is denoted as B)
[2]; KD ratio HRAS/KRAS
  HRAS/KRAS (ratio of KD value with respect to GDP-bound HRAS wild-type protein to KD value with respect to KRAS): B (a compound having 3 or more and less than 10 is denoted as B)

## CCO[C@@H]1C[C@H]2C(=O)NC3(CCC3)C(=O)N(C)[C@@H](C3CCCC3)C(=O)N(C)[C@H](C(=O)N(C)C)CC(=O)N(C)[C@@H](Cc3cccc(C#N)c3)C(=O)N[C@@H]([C@@H](C)CC)C(=O)N(C)CC(=O)N(C)[C@H]3CCCCCN(C3=O)[C@@H](Cc3ccc(F)cc3)C(=O)N(C)CC(=O)N[C@@H](CCc3cc(F)c(C(F)(F)F)c(F)c3)C(=O)N2C1 [PP1156]
[1]; KD ratio
  NRAS/KRAS (ratio of KD value with respect to NRAS to KD value with respect to KRAS): B (a compound having 3 or more and less than 10 is denoted as B)
[2]; KD ratio
  HRAS/KRAS (ratio of KD value with respect to HRAS to KD value with respect to KRAS): B (a compound having 3 or more and less than 10 is denoted as B)

## CCCN1C(=O)CN(C)C(=O)CNC(=O)[C@H]([C@@H](C)CC)NC(=O)[C@H](CC(C)C)N(C)C(=O)C[C@@H](C(=O)N2CCOCC2)N(C)C(=O)[C@H](C2CCCC2)N(C)C(=O)C2(CCCC2)NC(=O)[C@@H]2C[C@H](C)CN2C(=O)[C@H](CCc2ccc(C(F)(F)F)c(Cl)c2)NC(=O)CN(C)C(=O)[C@@H]1Cc1ccc(C(F)(F)F)cc1 [PP0449] ([NMeL]IG[Sar][NPrPhe(4-CF3)][Sar][hPhe(3-Cl-4-CF3)][Pro(4S-Me)][Ac5c][NMeGly(cPent)][NMeD]-Morpholide; lactam N-11)
[1]; KD ratio NRAS/KRAS
  NRAS/KRAS (ratio of KD value with respect to GDP-bound NRAS wild-type protein to KD value with respect to KRAS): C (A compound having a KD ratio of 0.1 or more and less than 3 is denoted as C)
[2]; KD ratio HRAS/KRAS
  HRAS/KRAS (ratio of KD value with respect to GDP-bound HRAS wild-type protein to KD value with respect to KRAS): C (A compound having a KD ratio of 0.1 or more and less than 3 is denoted as C)

## CC[C@H](C)[C@@H]1NC(=O)[C@H](COC)N(C)C(=O)C[C@@H](C(=O)N2CCOCC2)N(C)C(=O)[C@H](C2CCCC2)N(C)C(=O)C2(CCC2)NC(=O)[C@@H]2CCCN2C(=O)[C@H](CCc2cc(F)c(C(F)(F)F)c(F)c2)NC(=O)CN(C)C(=O)[C@H](Cc2ccc(C(F)(F)F)cc2)N2CCCCC[C@@H](C2=O)N(C)C(=O)CNC1=O [PP0860]
[1]; KD ratio
  NRAS/KRAS (ratio of KD value with respect to NRAS to KD value with respect to KRAS): B (a compound having 3 or more and less than 10 is denoted as B)
[2]; KD ratio
  HRAS/KRAS (ratio of KD value with respect to HRAS to KD value with respect to KRAS): B (a compound having 3 or more and less than 10 is denoted as B)

## CCCN1C(=O)[C@@H]2CCN2C(=O)CN(C)C(=O)[C@H]([C@@H](C)CC)NC(=O)[C@H](CC(C)C)N(C)C(=O)C[C@@H](C(=O)N(C)C)N(C)C(=O)[C@H](C2CCCC2)N(C)C(=O)C2(CCCC2)NC(=O)[C@@H]2CC(F)(F)CN2C(=O)[C@H](CCc2ccc(C(F)(F)F)c(Cl)c2)NC(=O)CN(C)C(=O)[C@@H]1Cc1ccc(C(F)(F)F)cc1 [PP0442] ([NMeL]I[Sar][Aze][NPrPhe(4-CF3)][Sar][hPhe(3-Cl-4-CF3)][Pro(4,4-F2)][Ac5c][NMeGly(cPent)][NMeD]-NMe2; lactam N-11)
[1]; KD ratio NRAS/KRAS
  NRAS/KRAS (ratio of KD value with respect to GDP-bound NRAS wild-type protein to KD value with respect to KRAS): C (A compound having a KD ratio of 0.1 or more and less than 3 is denoted as C)
[2]; KD ratio HRAS/KRAS
  HRAS/KRAS (ratio of KD value with respect to GDP-bound HRAS wild-type protein to KD value with respect to KRAS): C (A compound having a KD ratio of 0.1 or more and less than 3 is denoted as C)

## CCCOC[C@H]1C(=O)N[C@@H]([C@@H](C)CC)C(=O)N(C)CC(=O)N(C)[C@H]2C/C=C\CCN(C2=O)[C@@H](Cc2ccc(C)cc2)C(=O)N(C)CC(=O)N[C@@H](CCc2ccc(C(F)(F)F)c(Cl)c2)C(=O)N2C[C@H](CC)C[C@H]2C(=O)NC2(CC(C)(C)C2)C(=O)N(C)[C@@H](C2CCCC2)C(=O)N(C)[C@H](C(=O)N(C)C)CC(=O)N1C [PP2235]
[1]
  NRAS/KRAS (ratio of KD value with respect to NRAS to KD value with respect to KRAS): A (a compound having 10 or more and less than 20 is denoted as A)
[2]
  HRAS/KRAS (ratio of KD value with respect to HRAS to KD value with respect to KRAS): A (a compound having 10 or more and less than 20 is denoted as A)

## CCCN1C(=O)[C@@H]2CCN2C(=O)[C@H](C)N(C)C(=O)[C@H]([C@@H](C)CC)NC(=O)[C@H](CC(C)C)N(C)C(=O)C[C@@H](C(=O)N2CCOCC2)N(C)C(=O)[C@H](C2CCCC2)N(C)C(=O)C2(CC2)NC(=O)[C@@H]2CCCN2C(=O)[C@H](CCc2ccc(C(F)(F)F)c(Cl)c2)NC(=O)CN(C)C(=O)[C@@H]1Cc1ccc(C(F)(F)F)cc1 [PP0224] ([NMeL]I[NMeA][Aze][NPrPhe(4-CF3)][Sar][hPhe(3-Cl-4-CF3)]P[Ac3c][NMeGly(cPent)][NMeD]-Morpholide; lactam N-11)
[1]; KD ratio NRAS/KRAS
  NRAS/KRAS (ratio of KD for GDP-bound NRAS wild-type to KD for KRAS): C (A compound having a KD ratio of 0.1 or more and less than 3 is denoted as C)
[2]; KD ratio HRAS/KRAS
  HRAS/KRAS (ratio of KD for GDP-bound HRAS wild-type to KD for KRAS): B (a compound having 3 or more and less than 10 is denoted as B)

— patent US20250230193A1, “CYCLIC COMPOUND HAVING SELECTIVE KRAS INHIBITORY EFFECT ON HRAS AND NRAS” (CHUGAI SEIYAKU KABUSHIKI KAISHA, priority 2022, published 2025)
